{"source": "ChEMBL document CHEMBL1121391", "about": "“Antiamebic amidines and sulfonamides of 5- and 6-amino-2,3-bis(4-alkyl-1-piperazinyl)quinoxalines” (1980)", "key": {"[1]": {"tested_on": "Entamoeba histolytica", "experiment": "Lowest active dose which cured hamsters with Entamoeba histolytica hepatic infection was measured", "type": "functional"}, "[2]": {"tested_on": "Entamoeba histolytica", "experiment": "(§1) Lowest active dose which cured rats with Entamoeba histolytica cecal infection was measured", "type": "functional"}, "[3]": {"tested_on": "Entamoeba histolytica", "experiment": "as §1", "type": "functional, organism-based"}, "[4]": {"tested_on": "Cricetinae gen. sp.", "experiment": "Lowest active dose which cured the hamsters with Entamoeba histolytica hepatic infection was measured; IA means inactive", "type": "functional, organism-based", "conditions": "Cricetulus griseus"}}, "note": "Activity calls are given as the source filed them. The calls are words filed in the database; no cut-off is given here."}
{"smiles": "CN(C)/C=N/c1cccc2nc(N3CCN(C)CC3)c(N3CCN(C)CC3)nc12", "values": [{"measurement": "Dose", "setting": "[1]", "value": 50, "unit": "mg/kg/day"}, {"measurement": "Dose", "setting": "[2]", "value": 10, "unit": "mg/kg/day"}]}
{"smiles": "CCN(CC)/C(C)=N/c1cc(Cl)cc2nc(N3CCN(C)CC3)c(N3CCN(C)CC3)nc12", "values": [{"measurement": "Dose", "setting": "[3]", "value": "inactive"}]}
{"smiles": "CCCN1CCN(c2nc3cccc(N)c3nc2N2CCN(CCC)CC2)CC1", "values": [{"measurement": "Dose", "setting": "[3]", "value": "inactive"}]}
{"smiles": "CN1CCN(c2nc3ccc(/N=C/N4CCCCC4)cc3nc2N2CCN(C)CC2)CC1", "values": [{"measurement": "Dose", "setting": "[3]", "value": "inactive"}]}
{"smiles": "CN1CCN(c2nc3ccc(N)cc3nc2N2CCN(C)CC2)CC1", "values": [{"measurement": "Dose", "setting": "[4]", "value": "inactive"}, {"measurement": "Dose", "setting": "[2]", "value": 50, "unit": "mg/kg/day"}]}
{"smiles": "CN1CCN(c2nc3cc(Cl)cc(NS(=O)(=O)c4ccc(Cl)cc4)c3nc2N2CCN(C)CC2)CC1", "values": [{"measurement": "Dose", "setting": "[3]", "value": "inactive"}]}
{"smiles": "CCCN1CCN(c2nc3ccc(/N=C/N(C)C)cc3nc2N2CCN(CCC)CC2)CC1", "values": [{"measurement": "Dose", "setting": "[1]", "value": 100, "unit": "mg/kg/day"}, {"measurement": "Dose", "setting": "[2]", "value": 50, "unit": "mg/kg/day"}]}
{"smiles": "CN(C)/C=N/c1ccc2nc(N3CCN(C)CC3)c(N3CCN(C)CC3)nc2c1", "values": [{"measurement": "Dose", "setting": "[1]", "value": 50, "unit": "mg/kg/day"}, {"measurement": "Dose", "setting": "[2]", "value": 20, "unit": "mg/kg/day"}]}
{"smiles": "CCCN1CCN(c2nc3ccc(/N=C(\\C)N(C)C)cc3nc2N2CCN(CCC)CC2)CC1", "values": [{"measurement": "Dose", "setting": "[3]", "value": "inactive"}]}
{"smiles": "CN1CCN(c2nc3cccc(N)c3nc2N2CCN(C)CC2)CC1", "values": [{"measurement": "Dose", "setting": "[4]", "value": "inactive"}, {"measurement": "Dose", "setting": "[2]", "value": 50, "unit": "mg/kg/day"}]}
{"smiles": "CN1CCN(c2nc3ccc(NS(=O)(=O)c4cccc(C(F)(F)F)c4)cc3nc2N2CCN(C)CC2)CC1", "values": [{"measurement": "Dose", "setting": "[3]", "value": "inactive"}]}
{"smiles": "CN(C)CCCN1CCN(/C=N/c2ccc3nc(N4CCN(C)CC4)c(N4CCN(C)CC4)nc3c2)CC1", "values": [{"measurement": "Dose", "setting": "[3]", "value": "inactive"}]}
{"smiles": "CN1CCN(c2nc3cc(Cl)cc(N)c3nc2N2CCN(C)CC2)CC1", "values": [{"measurement": "Dose", "setting": "[3]", "value": "inactive"}]}
{"smiles": "CN(C)/C=N/c1cc(Cl)cc2nc(N3CCN(C)CC3)c(N3CCN(C)CC3)nc12", "note": "(stereo in doubt; 21)", "values": [{"measurement": "Dose", "setting": "[3]", "value": "inactive"}]}
{"smiles": "CN1CCN(/C=N/c2ccc3nc(N4CCN(C)CC4)c(N4CCN(C)CC4)nc3c2)CC1", "values": [{"measurement": "Dose", "setting": "[3]", "value": "inactive"}]}
{"smiles": "CC/C(=N\\c1cccc2nc(N3CCN(C)CC3)c(N3CCN(C)CC3)nc12)N(C)C", "values": [{"measurement": "Dose", "setting": "[3]", "value": "inactive"}]}
{"smiles": "CN(C)CCCc1ccc(/C=N/c2ccc3nc(N4CCN(C)CC4)c(N4CCN(C)CC4)nc3c2)cc1", "values": [{"measurement": "Dose", "setting": "[2]", "value": 50, "unit": "mg/kg/day"}]}
{"smiles": "CCCN1CCN(c2nc3ccc(N)cc3nc2N2CCN(CCC)CC2)CC1", "values": [{"measurement": "Dose", "setting": "[3]", "value": "inactive"}]}
{"smiles": "O=[N+]([O-])c1cncn1CCN1CCOCC1", "note": "[NIMORAZOLE]", "values": [{"measurement": "Dose", "setting": "[1]", "value": 100, "unit": "mg/kg/day"}, {"measurement": "Dose", "setting": "[2]", "value": 20, "unit": "mg/kg/day"}]}
{"smiles": "Cc1ccc(S(=O)(=O)Nc2cccc3nc(N4CCN(C)CC4)c(N4CCN(C)CC4)nc23)cc1", "values": [{"measurement": "Dose", "setting": "[3]", "value": "inactive"}]}
{"smiles": "CN1CCN(c2nc3ccc(NS(=O)(=O)c4ccc(Cl)cc4)cc3nc2N2CCN(C)CC2)CC1", "values": [{"measurement": "Dose", "setting": "[3]", "value": "inactive"}]}
{"smiles": "CCN(/C=N/c1ccc2nc(N3CCN(C)CC3)c(N3CCN(C)CC3)nc2c1)CC", "values": [{"measurement": "Dose", "setting": "[3]", "value": "inactive"}]}
{"smiles": "CN(C)/C=N/c1cc(Cl)cc2nc(N3CCN(C)CC3)c(N3CCN(C)CC3)nc12", "note": "(stereo in doubt; 7)", "values": [{"measurement": "Dose", "setting": "[3]", "value": "inactive"}]}
{"smiles": "CC/C(=N\\c1ccc2nc(N3CCN(C)CC3)c(N3CCN(C)CC3)nc2c1)N(CC)CC", "values": [{"measurement": "Dose", "setting": "[3]", "value": "inactive"}]}
{"smiles": "CC/C(=N\\c1cc(Cl)cc2nc(N3CCN(C)CC3)c(N3CCN(C)CC3)nc12)N(C)C", "values": [{"measurement": "Dose", "setting": "[3]", "value": "inactive"}]}
{"smiles": "CCCN1CCN(c2nc3ccc(NS(=O)(=O)c4ccc(C)cc4)cc3nc2N2CCN(CCC)CC2)CC1", "values": [{"measurement": "Dose", "setting": "[3]", "value": "inactive"}]}
{"smiles": "Cc1ncc([N+](=O)[O-])n1CCO", "note": "[METRONIDAZOLE]", "values": [{"measurement": "Dose", "setting": "[1]", "value": 10, "unit": "mg/kg/day"}, {"measurement": "Dose", "setting": "[2]", "value": 10, "unit": "mg/kg/day"}]}
{"smiles": "Cc1ccc(S(=O)(=O)Nc2ccc3nc(N4CCN(C)CC4)c(N4CCN(C)CC4)nc3c2)cc1", "values": [{"measurement": "Dose", "setting": "[1]", "value": 100, "unit": "mg/kg/day"}, {"measurement": "Dose", "setting": "[2]", "value": 50, "unit": "mg/kg/day"}]}
{"smiles": "C/C(=N\\c1ccc2nc(N3CCN(C)CC3)c(N3CCN(C)CC3)nc2c1)N(C)C", "values": [{"measurement": "Dose", "setting": "[3]", "value": "inactive"}]}
{"smiles": "C/C(=N\\c1cccc2nc(N3CCN(C)CC3)c(N3CCN(C)CC3)nc12)N(C)C", "values": [{"measurement": "Dose", "setting": "[3]", "value": "inactive"}]}
